This data set is described as follows: plasticizer lost from sensor membrane over use life, remaining plasticizer determined by UPLC. The class given is physicochemical. Conditions: membranes in RAPIDPoint systems, at least 25 days, about 10 whole blood samples per business day. On the procedure: Membrane formulations were prepared by using NPOE or ETH 217 plasticizers with polyvinylchloride, magnesium ionophore and lipohilic ion exchange salt. The materials were dissolved in a suitable organic solvent at a solids ratio of 10%. The solutions were deposited on the sensor substrates and the solvent allowed to evaporate yielding the formed membranes. The formulations were optimized to yield membranes with the best obtainable magnesium selectivity over calcium and were generally at least greater than 1:1.
Sensors were incorporated into RAPIDPoint systems (available from Siemens Healthcare Diagnostics Inc.) and tested over at least 25 days. During this time, sensors were calibrated with magnesium containing reagents and exposed to whole blood samples at approximately 10 per business day. In addition, magnesium containing quality control solutions were also run across least 25 days at least once every day. After testing the membranes were removed from the sensor substrate and the amount of remaining plasticizer was determined by UPLC and so the amount of plasticizer lost over time was calculated.

As for `CCCCCCCCCCCCOc1ccccc1[N+](=O)[O-]` [ETH 217, 1-dodecyloxy-2-nitrobenzene], the “% by wt Plasticizer Lost” value is 3.9%.

For the origin of these results see patent US12222310B2, “Magnesium ion selective membranes” (Siemens Healthcare Diagnostics Inc., priority 2015, dated 2025).
